Assay results from ChEMBL document CHEMBL6127101, “Wee1 inhibitor optimization through deep-learning-driven decision making” (Eur J Med Chem, 2024).

Legend:
Wee1-like protein kinase = Wee1-like protein kinase (Homo sapiens, UniProt P30291); assay: Inhibition of Wee-1 (unknown origin) using Poly-Lys Tyr as substrate incubated for 60 mins in presence of ATP by ADP-Glo Kinase assay
NCI-H446 = assay: Inhibition of cell viability of human NCI-H446 cells incubated for 72 hrs by Cell Titer-Glo assay; details: NCI-H446, 72 h
A-427 = assay: Inhibition of cell viability of human A-427 cells incubated for 72 hrs by Cell Titer-Glo assay; format: functional, cell-based; details: A-427, 72 h
OVCAR-3 = assay: Inhibition of cell viability of human OVCAR-3 cells incubated for 72 hrs by Cell Titer-Glo assay; format: functional, cell-based; details: OVCAR-3, 72 h
C-33-A [1] = assay: Inhibition of cell viability of human C-33-A cells incubated for 72 hrs by Cell Titer-Glo assay; format: functional, cell-based
WiDr = assay: Inhibition of cell viability of human WiDr cells incubated for 72 hrs by Cell Titer-Glo assay; format: functional, cell-based
C-33-A [2] = assay: Inhibition of cell viability of human C-33-A cells incubated for 72 hrs by Cell Titer-Glo assay relative to control; format: functional

Sequence of Wee1-like protein kinase (P30291 whole entry): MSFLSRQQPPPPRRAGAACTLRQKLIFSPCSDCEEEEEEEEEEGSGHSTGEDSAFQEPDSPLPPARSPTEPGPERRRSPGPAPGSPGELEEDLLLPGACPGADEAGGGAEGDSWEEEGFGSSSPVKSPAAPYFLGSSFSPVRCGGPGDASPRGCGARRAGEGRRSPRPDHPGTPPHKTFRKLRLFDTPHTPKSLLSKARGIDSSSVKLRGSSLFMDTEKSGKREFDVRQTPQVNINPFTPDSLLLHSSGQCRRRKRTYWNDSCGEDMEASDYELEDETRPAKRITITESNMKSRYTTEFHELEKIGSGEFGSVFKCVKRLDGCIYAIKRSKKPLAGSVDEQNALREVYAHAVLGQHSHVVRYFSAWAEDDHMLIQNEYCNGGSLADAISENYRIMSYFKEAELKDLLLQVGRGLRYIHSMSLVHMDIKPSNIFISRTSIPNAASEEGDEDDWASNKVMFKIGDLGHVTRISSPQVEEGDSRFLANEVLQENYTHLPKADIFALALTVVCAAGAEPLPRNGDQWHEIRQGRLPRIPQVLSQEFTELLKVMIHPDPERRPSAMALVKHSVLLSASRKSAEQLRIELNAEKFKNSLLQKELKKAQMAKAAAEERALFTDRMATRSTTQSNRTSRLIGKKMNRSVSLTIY

| SMILES | IC50 (Wee1-like protein kinase) [nM] | IC50 (NCI-H446) [nM] | IC50 (OVCAR-3) [nM] | IC50 (A-427) [nM] | IC50 (C-33-A [1]) [nM] | IC50 (WiDr) [nM] | inhibition (INH) (C-33-A [2]) [%] |
| --- | --- | --- | --- | --- | --- | --- | --- |
| CC1(N)CCN(c2ccc(Nc3ncc(-c4cnco4)c(-c4cc(N5CC[C@H](N)C5)ns4)n3)cc2)CC1 | 47.1 | > 10000 | – | – | – | – | – |
| CN1CCN(c2ccc(Nc3ncc(-c4cncs4)c(-c4cc5ccccc5o4)n3)cc2)CC1 | 2.3 | 1160 | 736 | 463 | 458 | 855 | – |
| CN1CCN(c2ccc(Nc3ncc(-c4cncs4)c(-c4cnc(N5CC[C@H](O)C5)s4)n3)cc2)CC1 | 4.2 | 540 | 430 | 362 | 167 | 1110 | – |
| COc1cc(Nc2ncc(-c3cncs3)c(-c3cnc(N4CC[C@H](O)C4)s3)n2)ccc1N1CCN(C)CC1 | 2 | 417 | 229 | 152 | 99.5 | 538 | – |
| CN1CCN(c2ccc(Nc3ncc(-c4cncs4)c(-c4cnc(N5CC[C@H](F)C5)s4)n3)cc2)CC1 | 1.8 | 150 | 161 | 98.2 | – | 203 | 43.6 |
| CC1(N)CCN(c2ccc(Nc3ncc(-c4cnco4)c(-c4cc5ccccc5o4)n3)cc2)CC1 | 13.5 | 709 | 1500 | 1450 | – | – | – |
| COc1cc(Nc2ncc(-c3cncs3)c(-c3cnc(N4CC[C@H](F)C4)s3)n2)ccc1N1CCN(C)CC1 | 2 | 93.9 | 86.7 | 34.5 | 23.1 | 85 | – |
| CN1CCN(c2ccc(Nc3ncc(-c4cnco4)c(-c4cnc(N5CC[C@H](F)C5)s4)n3)cc2)CC1 | 3.6 | 562 | 414 | 211 | 130 | 423 | – |
| CC1(N)CCN(c2ccc(Nc3ncc(-c4cnco4)c(-c4snc(N5CCC(N)C5)c4F)n3)cc2)CC1 (stereo not given) | 47.1 | – | – | – | – | – | – |
| CN1CCN(c2ccc(Nc3ncc(-c4cncs4)c(-c4cnc(N5CC(O)C5)s4)n3)cc2)CC1 | 3.6 | 622 | 352 | 369 | 277 | 1020 | – |
| COc1cc(Nc2ncc(-c3cnco3)c(-c3cnc(N4CC[C@H](F)C4)s3)n2)ccc1N1CCN(C)CC1 | 2.5 | 300 | 212 | 115 | 62.6 | 186 | – |
| C=CCn1c(=O)c2cnc(Nc3ccc(N4CCN(C)CC4)cc3)nc2n1-c1ccc2c(n1)[C@@](O)(CC)CC2 [AZENOSERTIB] | 1.3 | 250 | 245 | 371 | 382 | 256 | – |

Further compounds by falling IC50 (Wee1-like protein kinase), results first:

| IC50 (Wee1-like protein kinase) [nM] | IC50 (NCI-H446) [nM] | IC50 (OVCAR-3) [nM] | SMILES | IC50 (A-427) [nM] | IC50 (C-33-A [1]) [nM] | IC50 (WiDr) [nM] | inhibition (INH) (C-33-A [2]) [%] |
| --- | --- | --- | --- | --- | --- | --- | --- |
| 895 | – | – | Cc1cc(-c2ccnc(-c3nc(Nc4ccc(N5CCC(C)(N)CC5)cc4)ncc3-c3cnco3)c2)n[nH]1 | – | – | – | – |
| 158 | – | – | CC1(N)CCN(c2ccc(Nc3ncc(-c4cnco4)c(-c4cccc(C(C)(C)O)c4)n3)cc2)CC1 | – | – | – | – |
| 33.7 | – | – | CC1(N)CCN(c2ccc(Nc3ncc(-c4cnco4)c(-c4cnc(N5CC(O)C5)s4)n3)cc2)CC1 | – | – | – | – |
| 22.4 | 1410 | 1840 | COc1cc(Nc2ncc(-c3cnco3)c(-c3cnc(N4CC[C@H](O)C4)s3)n2)ccc1N1CCN(C)CC1 | 589 | 410 | 1470 | – |
| 20.9 | 1660 | 2110 | CN1CCN(c2ccc(Nc3ncc(-c4cnco4)c(-c4cnc(N5CC[C@H](O)C5)s4)n3)cc2)CC1 | 565 | 527 | 2170 | – |
| 13.5 | – | – | CC1(N)CCN(c2ccc(Nc3ncc(-c4cnco4)c(-c4cc5ccc(CO)cc5o4)n3)cc2)CC1 | – | – | – | – |
| 3.7 | 313 | 252 | COc1cc(Nc2ncc(-c3cncs3)c(-c3cnc(N4CC(O)C4)s3)n2)ccc1N1CCN(C)CC1 | 163 | 105 | 415 | – |
| 1.9 | 2040 | – | COc1cc(Nc2ncc(-c3cncs3)c(-c3cc4ccccc4o3)n2)ccc1N1CCN(C)CC1 | – | – | – | – |
